Data on two compounds can be found in patent US20240423923A1, “EXTRACELLULAR VESICLES FROM MICROALGAE, THEIR BIODISTRIBUTION UPON ADMINISTRATION, AND USES” (AGS THERAPEUTICS SAS, priority 2022, published 2024).

For test [1] the following is noted: medial prefrontal cortex, anterior cingulate cortex, central nucleus of amygdala; cited from earlier work.
In test [2] the target is Flagellin Sensing 2 receptor (FLS2) (Arabidopsis thaliana) (UniProt Q9FL28). In words: cell-based or functional assay.
Sequence of UniProt Q9FL28 (Q9FL28 24-1173): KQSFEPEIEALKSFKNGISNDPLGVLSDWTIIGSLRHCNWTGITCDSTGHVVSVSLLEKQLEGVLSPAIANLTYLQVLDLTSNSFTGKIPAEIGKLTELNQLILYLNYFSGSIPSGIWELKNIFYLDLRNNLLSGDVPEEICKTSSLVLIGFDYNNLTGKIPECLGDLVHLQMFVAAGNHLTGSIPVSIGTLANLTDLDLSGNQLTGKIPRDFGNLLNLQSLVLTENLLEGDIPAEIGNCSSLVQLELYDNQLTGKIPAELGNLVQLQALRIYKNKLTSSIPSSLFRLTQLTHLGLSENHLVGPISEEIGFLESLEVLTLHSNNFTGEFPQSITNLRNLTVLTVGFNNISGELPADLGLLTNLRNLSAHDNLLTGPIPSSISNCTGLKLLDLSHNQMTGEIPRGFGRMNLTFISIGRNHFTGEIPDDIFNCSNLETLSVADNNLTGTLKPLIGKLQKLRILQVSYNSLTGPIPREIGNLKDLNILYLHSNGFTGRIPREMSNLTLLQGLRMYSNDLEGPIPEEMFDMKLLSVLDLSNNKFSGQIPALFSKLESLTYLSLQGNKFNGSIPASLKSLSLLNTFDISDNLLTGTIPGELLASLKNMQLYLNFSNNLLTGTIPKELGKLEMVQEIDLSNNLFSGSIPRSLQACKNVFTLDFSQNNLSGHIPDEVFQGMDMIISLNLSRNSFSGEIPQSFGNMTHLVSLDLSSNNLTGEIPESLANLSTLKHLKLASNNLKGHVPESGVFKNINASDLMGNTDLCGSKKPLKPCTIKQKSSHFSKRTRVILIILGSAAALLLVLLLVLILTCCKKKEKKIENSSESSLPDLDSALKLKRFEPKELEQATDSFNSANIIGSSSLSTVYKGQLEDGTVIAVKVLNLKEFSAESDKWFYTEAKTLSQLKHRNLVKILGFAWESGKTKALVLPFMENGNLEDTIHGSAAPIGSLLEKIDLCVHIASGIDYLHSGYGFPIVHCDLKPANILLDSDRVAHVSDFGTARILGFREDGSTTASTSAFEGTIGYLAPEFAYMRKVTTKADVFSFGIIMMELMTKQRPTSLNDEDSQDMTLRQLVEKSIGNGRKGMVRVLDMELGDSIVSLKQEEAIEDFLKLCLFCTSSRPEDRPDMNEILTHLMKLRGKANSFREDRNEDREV

Sequence of flg22 peptide (22 amino acid synthetic peptide that mimics the conserved N-terminal region of bacterial flagellin) (P21184 30-51): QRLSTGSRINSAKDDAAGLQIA

In the case of `CCN(CC)C(=O)[C@@H]1C=C2c3cccc4[nH]cc(c34)C[C@H]2N(C)C1` [LSD, Lysergic acid diethylamide], in test [1], the “increase in Fos-like immunoreactivity” value is given as “a five- to eight-fold increase”. Regarding “flg22 peptide (22 amino acid synthetic peptide that mimics the conserved N-terminal region of bacterial flagellin)”, the stomatal closure assay; effect of flg22-loaded EVs compared with free flg22 peptide in test [2] was over 10 nM.
